In patent US20250313544A1, “INHIBITORS OF GLUTATHIONE S-TRANSFERASE ZETA 1 (GSTZ1) AND METHODS OF USE” (H. LEE MOFFITT CANCER CENTER AND RESEARCH INSTITUTE, INC., priority 2022, published 2025):

Tests used:
H1792 cells = test: In-gel fluorescence analysis of probe-labeled proteins after photocrosslinking in live H1792 cells; assay type: binding, human; details: compared to vehicle
Protocol: Cells were grown in 10 cm dishes to ˜90% confluence at the time of treatment. Cells were carefully washed twice with Dulbecco's phosphate buffered saline (DPBS) and replenished with fresh serum-free RPMI 1640 media containing indicated probes ([…]), competitors, or DMSO. Without competitors, cells were incubated with probes for 30 min at 37° C. and then exposed to 365 nm UV light for 15 min on ice. With competitors, cells were pre-treated with competitors for 30 min and photoactivated for 15 min. Probes were then added to cells for an additional 30 min incubation. For no UV experiments, cells were incubated for 15 min under ambient light. Cells were harvested in cold DPBS and pellets were washed with cold DPBS (2 X). Pellets were either directly processed or kept frozen at −80° C. until use. Cells pellets were lysed for 30 min in cold DPBS (100-300 uL) per culture dish supplemented with 1% NP-40, followed by sonication (5 pulses, 4 s on, 20 s off, output setting=4). Lysates were centrifuged at 20,817×g for 20 min, and supernatant (soluble proteome) was used for further processing. Protein concentrations were determined using Bradford assays.
To 1 mg of protein, were added a mixture of TBTA (Tris((1-benzyl-4-triazolyl)methyl)amine, 60 μL/sample, 1.7 mM in 1:4 DMSO: t-BuOH stock), CuSO4 (20 μL/sample, 50 mM in H2O), TCEP (tris(2-carboxyethyl) phosphine, 20 μL/sample, 50 mM in DPBS, made fresh) and Biotin-Azide conjugate (10 μL/sample, 10 mM in DMSO stock). Each sample was rotated at room temperature for 2 h. To each resultant a cold 4:1 mixture (600 μL) of methanol (MeOH)/chloroform (CHCl3) was added followed by cold PBS (100 μL) on ice. The resulting cloudy mixture was centrifuged (5,000×g, 10 min, 4° C.) to fractionate the protein interface from the organic and aqueous solvent layers. A MeOH:CHCl3 (1:1, 1 mL, 2×) mixture was used to wash protein discs thoroughly. Protein discs were sonicated in cold 4:1 MeOH:CHCl3 (2 mL) mixture. The remaining precipitate was pelleted by centrifugation (5,000×g, 10 min, 4° C.). […] Gels were subjected to fluorescence imaging or Western Blotting.

GSTZ1 = biological target: T1, GSTZ1 (Homo sapiens, UniProt O43708); test: GSTZ1 pulldown and competition after photocrosslinking in live H1792 cells (biotin enrichment, immunoblotting); assay type: binding; parameters: endogenous in cells; host or cells: H1792 cells; details: UV crosslinking
T1 sequence (O43708 1-216): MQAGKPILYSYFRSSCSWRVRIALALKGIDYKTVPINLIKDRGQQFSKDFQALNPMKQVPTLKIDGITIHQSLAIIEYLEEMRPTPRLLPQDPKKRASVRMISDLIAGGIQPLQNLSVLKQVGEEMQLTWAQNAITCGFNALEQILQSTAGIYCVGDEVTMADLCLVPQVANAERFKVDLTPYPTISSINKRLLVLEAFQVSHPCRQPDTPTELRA
Protocol: Cells were harvested and washed with PBS and lysed in RIPA buffer (150 mM NaCl, 50 mM Tris-HCl, pH 7.4, 5 mM EDTA, 1% NP40, 0.1% SDS) containing complete protease inhibitor cocktail (Roche, 11873580001) and phosphatase inhibitor cocktail 2 (Sigma, P5726) for 30 min on ice. The Coomassie Plus (Bradford) protein assay (23236, ThermoFisher, MA) was conducted for measuring concentrations of resulting supernatants. Samples were prepared by adding 4× Laemmli sample buffer and heat-denaturing for 5 minutes. All samples or total cell lysates were resolved by SDS-PAGE and then transferred onto PVDF membranes. 5% non-fat milk was utilized for blocking of non-specific binding. Blots were incubated with primary antibodies overnight at 4° C. For immunoblotting, primary antibodies were purchased from Cell Signaling: PARP1 (#9542), cleaved caspase-3 (#9661), Phospho-tyrosine Mouse mAb (P-Tyr-100, #9411), FGFR1 (#9740). GAPDH (#60004-1-Ig) and GSTZ1 (#14889-1-AP) were purchased from Proteintech. […] Densitometry was analyzed using Image Studio Lite Ver 5.2.
Cells were grown in 10 cm dishes to ˜90% confluence at the time of treatment. […] Protein concentrations were determined using Bradford assays. […]

`C#CCCC1(CCC(=O)N2CCC(COc3nc4ccccc4nc3C)CC2)N=N1` [Probe 17, 3-(3-(but-3-yn-1-yl)-3H-diazirin-3-yl)-1-(4-(((3-methylquinoxalin-2-yl)oxy)methyl)piperidin-1-yl)propan-1-one] was tested, and the “proteome labeling by probe (in-gel fluorescence)” value (H1792 cells) was “efficiently labeled a wide range of proteins” and the “GSTZ1 enrichment by probe (affinity enrichment, immunoblotting with GSTZ1 antibody)” value (GSTZ1) was “specifically enriched”.
